Laboratory results as given in patent US10626144B2, “Peptide derivatives and uses thereof” (Nosopharm, priority 2014, dated 2020).
Where two headings read alike, the source gives them in different places. Numbered stars: 1 amine (or outer) side, 2 acyl side, 3 side chain; on linkers, the order of the positions; unused ones are H or OH. Square brackets hold non-standard residues; d marks the D form. Peptide text beside a SMILES is read from it. * marks the point of attachment. X3 = NC[C@H](OC(=O)C(F)(F)F)[C@H](N[*:1])C(=O)[*:2]; Phe(3-CONH2) = NC(=O)c1cccc(C[C@H](N)C(=O)O)c1; X1 = O=C([C@H](Cc1cc(F)c(F)cc1F)N[*:1])[*:2]; Dab(3S-OH) = NC[C@H](O)[C@H](N)C(=O)O; ΔZArg = N=C(N)NCC/C=C(\N)C(=O)O; aThr = C[C@H](O)[C@H](N)C(=O)O; dOrn = NCCC[C@@H](N)C(=O)O; Pra = C#CC[C@H](N)C(=O)O; Abu = CC[C@H](N)C(=O)O; NH(CH2)4NH2 = NCCCCN*

Experiments:
[1] = test system: Pseudomonas aeruginosa ATCC 27853; assay: MIC, broth microdilution (CLSI), reference strain; details: CAMHB
[2] = test system: Escherichia coli ATCC 25922; assay: MIC, broth microdilution (CLSI), reference strain; details: CAMHB
[3] = test system: Staphylococcus aureus ATCC 13709; assay: MIC, broth microdilution (CLSI), reference strain; details: CAMHB
[4] = test system: Acinetobacter baumannii ATCC 19606; assay: MIC, broth microdilution (CLSI), reference strain; details: CAMHB
Ec #1 (NCTC13476) = assay: MIC / resistance profile, multidrug-resistant strain; details: multidrug-resistant E. coli NCTC13476
Ec #2 (MIN) = assay: as above; details: multidrug-resistant E. coli MIN
Ec #3 (EGB957) = assay: as above; details: multidrug-resistant E. coli EGB957
Ec #4 (GUE) = assay: as above; details: multidrug-resistant E. coli GUE
Ec #5 (DSM22315) = assay: as above; details: multidrug-resistant E. coli DSM22315
[5] = molecular target: N-type calcium channels (Cav2.2) (Rattus norvegicus (Rat), UniProt Q02294); assay: biochemical; assay type: binding
[6] = class symbol, rat cerebral cortex, [125I]ω-conotoxin GVIA 0.001 nM, 30 minutes at room temperature, read-out: IC50 Cav2.2

Row | SMILES | Pa: MIC Pseudomonas aeruginosa ATCC 27853 [1] | Ec: MIC Escherichia coli ATCC 25922 [2] | Sa: MIC Staphylococcus aureus ATCC 13709 [3] | Ab: MIC Acinetobacter baumannii ATCC 19606 [4] | MIC Ec#1 (Ec #1 (NCTC13476)) | MIC Ec#2 (Ec #2 (MIN)) | MIC Ec#3 (Ec #3 (EGB957)) | MIC Ec#4 (Ec #4 (GUE)) | MIC Ec#5 (Ec #5 (DSM22315)) | IC50 [5, 6] [nM] | IC50 [5] [nM] | IC50 ([5]; value in brackets, rat cerebral cortex, [125I]ω-conotoxin GVIA 0.001 nM, read-out: IC50 Cav2.2) [nM]
1 | C[C@H](NC(=O)[C@@H](NC(=O)[C@@H](N)CCCCN)[C@@H](O)CN)C(=O)NCC(=O)N[C@H](CCCN)C(=O)N1CCC[C@H]1C(=O)N[C@@H](Cc1cc(F)c(F)cc1F)C(=O)N[C@@H](CCCCN)C(=O)N/C(=C\CCNC(=N)N)C(=O)O [24.77] (H-K[Dab(3S-OH)]AG[dOrn]P[X1]K[ΔZArg]-OH) | − (>32 μg/mL) | ++ (≤8 μg/mL) | ++ (≤8 μg/mL) | − (>32 μg/mL) | + (≤32 μg/mL) | + (≤32 μg/mL) | ++ (≤8 μg/mL) | + (≤32 μg/mL) | + (≤32 μg/mL) |  |  | 
2 | C[C@H](NC(=O)[C@@H](NC(=O)[C@@H](N)CCCCN)[C@@H](O)CN)C(=O)NCC(=O)N[C@H](CCCN)C(=O)N1CCC[C@H]1C(=O)N[C@@H](Cc1cccc(C(N)=O)c1)C(=O)N[C@@H](CCCCN)C(=O)N/C(=C\CCNC(=N)N)C(=O)O [24.90] (H-K[Dab(3S-OH)]AG[dOrn]P[Phe(3-CONH2)]K[ΔZArg]-OH) | − (>32 μg/mL) | ++ (≤8 μg/mL) | ++ (≤8 μg/mL) | − (>32 μg/mL) | ++ (≤8 μg/mL) | ++ (≤8 μg/mL) | ++ (≤8 μg/mL) | ++ (≤8 μg/mL) | ++ (≤8 μg/mL) |  |  | 
3 | C#CC[C@H](NC(=O)[C@@H]1CCCN1C(=O)[C@@H](CCCN)NC(=O)CNC(=O)[C@H](C)NC(=O)[C@@H](NC(=O)[C@@H](N)CCCCN)[C@@H](O)CN)C(=O)N[C@@H](CCCCN)C(=O)N/C(=C\CCNC(=N)N)C(=O)O [24.135] (H-K[Dab(3S-OH)]AG[dOrn]P[Pra]K[ΔZArg]-OH) | − (>32 μg/mL) | + (≤32 μg/mL) | + (≤32 μg/mL) | − (>32 μg/mL) |  |  |  |  |  | > 300 |  | 
4 | C[C@H](NC(=O)[C@@H](NC(=O)[C@@H](N)CCCCN)[C@@H](O)CN)C(=O)NCC(=O)N[C@H](CCCN)C(=O)N1CCC[C@H]1C(=O)N[C@@H](Cc1ccc(O)cc1)C(=O)N[C@@H](CCCCN)C(=O)N/C(=C\CCNC(=N)N)C(=O)O [24.138] (H-K[Dab(3S-OH)]AG[dOrn]PYK[ΔZArg]-OH) | − (>32 μg/mL) | + (≤32 μg/mL) | + (≤32 μg/mL) | − (>32 μg/mL) |  |  |  |  |  | > 300 |  | 
5 | C[C@H](O)[C@H](NC(=O)[C@@H](NC(=O)[C@@H](N)CCCCN)[C@@H](O)CN)C(=O)NCC(=O)N[C@H](CCCN)C(=O)N1CCC[C@H]1C(=O)N[C@@H](Cc1cnc[nH]1)C(=O)N[C@@H](CCCCN)C(=O)N/C(=C\CCNC(=N)N)C(=O)N[C@@H](CCCCN)C(=O)NCCCCN [25.1] (H-K[Dab(3S-OH)][aThr]G[dOrn]PHK[ΔZArg]K-{NH(CH2)4NH2}) | + (≤32 μg/mL) | ++ (≤8 μg/mL) | ++ (≤8 μg/mL) | − (>32 μg/mL) |  |  |  |  |  |  | < 30 | 3
6 | C[C@H](O)[C@H](NC(=O)[C@@H](NC(=O)[C@@H](N)CCCCN)[C@@H](O)CN)C(=O)NCC(=O)N[C@H](CCCN)C(=O)N1CCC[C@H]1C(=O)N[C@@H](Cc1cnc[nH]1)C(=O)N[C@@H](CCCCN)C(=O)N/C(=C\CCNC(=N)N)C(=O)O [25.2] (H-K[Dab(3S-OH)][aThr]G[dOrn]PHK[ΔZArg]-OH) | − (>32 μg/mL) | − (>32 μg/mL) | − (>32 μg/mL) | − (>32 μg/mL) |  |  |  |  |  | > 300 |  | 
7 | CC[C@H](C)[C@H](NC(=O)[C@@H](NC(=O)[C@@H](N)CCCCN)[C@@H](O)CN)C(=O)NCC(=O)N[C@H](CCCN)C(=O)N1CCC[C@H]1C(=O)N[C@@H](Cc1cnc[nH]1)C(=O)N[C@@H](CCCCN)C(=O)N/C(=C\CCNC(=N)N)C(=O)N[C@@H](CCCCN)C(=O)NCCCCN [27.1] (H-K[Dab(3S-OH)]IG[dOrn]PHK[ΔZArg]K-{NH(CH2)4NH2}) | − (>32 μg/mL) | ++ (≤8 μg/mL) | ++ (≤8 μg/mL) | − (>32 μg/mL) |  |  |  |  |  | < 30 |  | 
8 | CC[C@H](C)[C@H](NC(=O)[C@@H](NC(=O)[C@@H](N)CCCCN)[C@@H](O)CN)C(=O)NCC(=O)N[C@H](CCCN)C(=O)N1CCC[C@H]1C(=O)N[C@@H](Cc1cnc[nH]1)C(=O)N[C@@H](CCCCN)C(=O)N/C(=C\CCNC(=N)N)C(=O)O [27.2] (H-K[Dab(3S-OH)]IG[dOrn]PHK[ΔZArg]-OH) | − (>32 μg/mL) | − (>32 μg/mL) | + (≤32 μg/mL) | − (>32 μg/mL) |  |  |  |  |  | > 300 |  | 
9 | CC[C@H](NC(=O)[C@@H](NC(=O)[C@@H](N)CCCCN)[C@@H](O)CN)C(=O)NCC(=O)N[C@H](CCCN)C(=O)N1CCC[C@H]1C(=O)N[C@@H](Cc1cnc[nH]1)C(=O)N[C@@H](CCCCN)C(=O)N/C(=C\CCNC(=N)N)C(=O)N[C@@H](CCCCN)C(=O)NCCCCN [28.1] (H-K[Dab(3S-OH)][Abu]G[dOrn]PHK[ΔZArg]K-{NH(CH2)4NH2}) | − (>32 μg/mL) | ++ (≤8 μg/mL) | ++ (≤8 μg/mL) | − (>32 μg/mL) |  |  |  |  |  | < 30 |  | 
10 | CC[C@H](NC(=O)[C@@H](NC(=O)[C@@H](N)CCCCN)[C@@H](O)CN)C(=O)NCC(=O)N[C@H](CCCN)C(=O)N1CCC[C@H]1C(=O)N[C@@H](Cc1cnc[nH]1)C(=O)N[C@@H](CCCCN)C(=O)N/C(=C\CCNC(=N)N)C(=O)O [28.2] (H-K[Dab(3S-OH)][Abu]G[dOrn]PHK[ΔZArg]-OH) | − (>32 μg/mL) | − (>32 μg/mL) | + (≤32 μg/mL) | − (>32 μg/mL) |  |  |  |  |  | > 300 |  | 
11 | CC(C)[C@H](NC(=O)[C@@H](NC(=O)[C@@H](N)CCCCN)[C@@H](O)CN)C(=O)NCC(=O)N[C@H](CCCN)C(=O)N1CCC[C@H]1C(=O)N[C@@H](Cc1cnc[nH]1)C(=O)N[C@@H](CCCCN)C(=O)N/C(=C\CCNC(=N)N)C(=O)N[C@@H](CCCCN)C(=O)NCCCCN [212.1] (H-K[Dab(3S-OH)]VG[dOrn]PHK[ΔZArg]K-{NH(CH2)4NH2}) | − (>32 μg/mL) | ++ (≤8 μg/mL) | ++ (≤8 μg/mL) | − (>32 μg/mL) |  |  |  |  |  | < 30 |  | 
12 | CC(C)[C@H](NC(=O)[C@@H](NC(=O)[C@@H](N)CCCCN)[C@@H](O)CN)C(=O)NCC(=O)N[C@H](CCCN)C(=O)N1CCC[C@H]1C(=O)N[C@@H](Cc1cnc[nH]1)C(=O)N[C@@H](CCCCN)C(=O)N/C(=C\CCNC(=N)N)C(=O)O [212.2] (H-K[Dab(3S-OH)]VG[dOrn]PHK[ΔZArg]-OH) | − (>32 μg/mL) | − (>32 μg/mL) | + (≤32 μg/mL) | − (>32 μg/mL) |  |  |  |  |  | > 300 |  | 
13 | N=C(N)NCC/C=C(\NC(=O)[C@H](CCCCN)NC(=O)[C@H](Cc1cnc[nH]1)NC(=O)[C@@H]1CCCN1C(=O)[C@@H](CCCN)NC(=O)CNC(=O)[C@@H](NC(=O)[C@@H](NC(=O)[C@@H](N)CCCCN)[C@@H](O)CN)[C@H](CN)OC(=O)C(F)(F)F)C(=O)N[C@@H](CCCCN)C(=O)NCCCCN [224.1] (H-K[Dab(3S-OH)][X3]G[dOrn]PHK[ΔZArg]K-{NH(CH2)4NH2}) | + (≤32 μg/mL) | ++ (≤8 μg/mL) | ++ (≤8 μg/mL) | − (>32 μg/mL) |  |  |  |  |  | < 30 |  | 
